For this assay, the target named is T1, Dopamine beta hydroxylase (Homo sapiens, UniProt P09172).
T1 construct: 125 μl of plasma; tissue Instituto Português do Sangue Transplantação; host or cells: human plasma from healthy donors
T1 sequence (P09172 40-617 limits assumed): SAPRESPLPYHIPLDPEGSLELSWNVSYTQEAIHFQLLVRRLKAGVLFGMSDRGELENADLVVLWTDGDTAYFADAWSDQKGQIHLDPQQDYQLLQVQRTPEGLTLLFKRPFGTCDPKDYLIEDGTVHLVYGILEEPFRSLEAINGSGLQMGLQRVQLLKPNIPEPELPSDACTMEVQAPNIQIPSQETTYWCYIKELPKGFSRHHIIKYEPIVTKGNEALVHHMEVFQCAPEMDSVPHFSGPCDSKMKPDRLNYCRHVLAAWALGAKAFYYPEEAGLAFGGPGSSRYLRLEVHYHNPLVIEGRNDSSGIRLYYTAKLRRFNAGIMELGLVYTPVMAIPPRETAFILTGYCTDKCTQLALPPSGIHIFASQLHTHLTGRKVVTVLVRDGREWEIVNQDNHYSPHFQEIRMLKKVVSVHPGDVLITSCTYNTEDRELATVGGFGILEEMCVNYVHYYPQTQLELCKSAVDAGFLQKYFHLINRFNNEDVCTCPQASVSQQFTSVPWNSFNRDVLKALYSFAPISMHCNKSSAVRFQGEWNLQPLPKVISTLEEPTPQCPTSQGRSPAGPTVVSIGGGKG
The assay is described as follows: Dopamine beta hydroxylase activity in human plasma. It counts as biochemical. Conditions: for Plasma (1 μM), activity in % of control: inhibitor 1 μM. In a few lines: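 Healthy-donor human plasma pre-incubated 10 min at 37° C with compound at final 10, 100 or 1000 nM in pH 5.0 acetate buffer with ascorbate, fumarate, pargyline, N-ethylmaleimide, catalase and copper sulfate. Tyramine substrate then added for 45 min; octopamine formed was isolated by SCX cartridge, periodate-converted and read at 330 nm; activity given as % control.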

The text below walks through data of patent publication US11434242B2, “Dopamine-b-hydroxylase inhibitors” (BIAL-PORTELA & Cª, S.A., priority 2017, dated 2022).

Marks after values point to notes of the source that are not given here.

For `CN(C(=O)Cc1c2n(c(=S)n1C)C[C@@]1(c3cc(Cl)ccc3F)C[C@@H]21)C1CCOCC1` [Example 434, 2-((5aS,6aR)-5a-(5-chloro-2-fluorophenyl)-2-methyl-3-thioxo-2,3,5,5a,6,6a-hexahydrocyclopropa[3,4]pyrrolo[1,2-c]imidazol-1-yl)-N-methyl-N-(tetrahydro-2H-pyran-4-yl)acetamide], where the note is “inhibitor 0.01 μM”, the “Plasma (0.01 μM), activity in % of control” value is recorded as 52.5 % of control. For the same molecule, the “Plasma (0.1 μM), activity in % of control” value (inhibitor 0.1 μM) is 8.5 % of control.
As to `Cn1c(CC(=O)N2CCOCC2)c2n(c1=S)C[C@@]1(c3cc(Br)ccc3F)C[C@@H]21` [Example 436, 2-((5aS,6aR)-5a-(5-bromo-2-fluorophenyl)-2-methyl-3-thioxo-2,3,5,5a,6,6a-hexahydrocyclopropa[3,4]pyrrolo[1,2-c]imidazol-1-yl)-1-morpholinoethan-1-one], for the setting “inhibitor 0.01 μM”, the “Plasma (0.01 μM), activity in % of control” value is given as 73.6 % of control. Besides, for the setting “inhibitor 0.1 μM”, the “Plasma (0.1 μM), activity in % of control” value was 23.9 % of control.
The matching figures for `O=C(Cc1[nH]c(=S)n2c1C[C@H](c1c(F)ccc(F)c1F)C2)N1CCOCC1` [Example 366, (R)-2-(6-(2,3,6-trifluorophenyl)-3-thioxo-2,5,6,7-tetrahydro-3H-pyrrolo[1,2-c]imidazol-1-yl)-1-morpholinoethan-1-one]: 124.8 % of control and 81.4 % of control.
With `N[C@@H](CNC(=O)Cc1[nH]c(=S)n2c1C[C@H](c1c(F)c(F)cc(F)c1F)C2)C(=O)O` [Example 31, (S)-2-amino-3-(2-((R)-6-(2,3,5,6-tetrafluorophenyl)-3-thioxo-3,5,6,7-tetrahydro-2H-pyrrolo[1,2-c]imidazol-1-yl)acetamido)propanoic acid], the “Plasma (1 μM), activity in % of control” value was 16.7 % of control. For the same molecule, the “Plasma (0.1 μM), activity in % of control” value (inhibitor 0.1 μM) is 67.7 % of control.
Take `Cn1c(CC(=O)NC2CCOCC2)c2n(c1=S)C[C@@]1(c3cc(Br)ccc3F)C[C@@H]21` [Example 314, 2-((5aS,6aR)-5a-(5-bromo-2-fluorophenyl)-2-methyl-3-thioxo-2,3,5,5a,6,6a-hexahydrocyclopropa[3,4]pyrrolo[1,2-c]imidazol-1-yl)-N-(tetrahydro-2H-pyran-4-yl)acetamide]: the “Plasma (0.01 μM), activity in % of control” value (inhibitor 0.01 μM) is recorded as 80.2 % of control. Moreover, under “inhibitor 0.01 μM, re-tested under the same experimental conditions, asterisked data believed to be correct”, the “Plasma (0.01 μM), activity in % of control, re-test (asterisked)” value was 41.9* % of control. Further, the “Plasma (0.1 μM), activity in % of control” value (inhibitor 0.1 μM) was 34.8 % of control. In addition, for the setting “inhibitor 0.1 μM, re-tested under the same experimental conditions, asterisked data believed to be correct”, the “Plasma (0.1 μM), activity in % of control, re-test (asterisked)” value was 1.4* % of control.
Regarding `[2H]C([2H])([2H])n1c(CC(=O)N[C@@H]2CCOC2)c2n(c1=S)C[C@@]1(c3cc(Br)ccc3F)C[C@@H]21` [Example 465, 2-((5aS,6aR)-5a-(5-bromo-2-fluorophenyl)-2-(methyl-d)-3-thioxo-2,3,5,5a,6,6a-hexahydrocyclopropa[3,4]pyrrolo[1,2-c]imidazol-1-yl)-N—((R)-tetrahydrofuran-3-yl)acetamide], under “inhibitor 0.01 μM”, the “Plasma (0.01 μM), activity in % of control” value is listed as 62.3 % of control. For the setting “inhibitor 0.1 μM”, the “Plasma (0.1 μM), activity in % of control” value is on record as 9.0 % of control.
For `O=C(Cc1[nH]c(=S)n2c1C[C@H](c1c(F)ccc(Br)c1F)C2)N1CCS(=O)(=O)CC1` [Example 125, (R)-2-(6-(3-bromo-2,6-difluorophenyl)-3-thioxo-2,5,6,7-tetrahydro-3H-pyrrolo[1,2-c]imidazol-1-yl)-1-(1,1-dioxidothiomorpholino)ethan-1-one] the same measures were 106.5 % of control and 43.7 % of control.
Turning to `O=C(Cc1[nH]c(=S)n2c1C[C@H](c1c(F)ccc(Br)c1F)C2)NC1CCOC1=O` (stereo partly drawn) [Example 22, 2-((R)-6-(3-bromo-2,6-difluorophenyl)-3-thioxo-2,5,6,7-tetrahydro-3H-pyrrolo[1,2-c]imidazol-1-yl)-N-(2-oxotetrahydrofuran-3-yl)acetamide], the “Plasma (1 μM), activity in % of control” value is 4.4 % of control. Besides, the “Plasma (0.1 μM), activity in % of control” value (inhibitor 0.1 μM) is recorded as 45.1 % of control.
